Reference: patent US4036696A, “Preparation of antibiotics by fermentation” (priority 1976, dated 1977)

Experiments:
[1] = test system: gram-negative and gram-positive organisms; test: in vivo activity against infections (in words); design: species or system mice
Method: Methods: The method employed in this characterization is as follows: Female white Swiss mice, average weight 20-23 grams, were infected intraperitoneally with 3-20 times the number of organisms calculated to be lethal for 50% of the infected control animals (3-20 LD50 doses). At the time of infection and again 6 hours later, therapy was given by the designated route. Controls of the virulence of the culture and the toxicity of the antibiotic for uninfected mice were included in the tests. Seven days after infection the test was considered complete and the amount of the antibiotic (I) that would be required to protect 50% of the infected and treated animals was calculated by the method of Knudsen and Curtis: J. Amer. Stat. Assoc. Vol. 42: page 282 (1947).
The method employed in these studies is the same as described above with regard to the in vivo characterization of 810A.

cephalosporinases = test: resistance to cephalosporinases / enzymatic degradation; type: biochemical
[2] = test system: Proteus vulgaris (MB-838); test: disc-plate assay using Proteus vulgaris; type: cell-based; details: read-out: concentration giving a 25 mm. zone

Q: For `COC(=Cc1ccc(OS(=O)(=O)O)cc1)C(=O)OCC1=C(C(=O)O)N2C(=O)[C@](NC(=O)CCC[C@@H](N)C(=O)O)(OC)[C@H]2SC1` [Ic, 7β-(D-5-amino-5-carboxyvaleramido)-3-(α-methoxy-p-sulfooxycinnamoyloxymethyl)-7-methoxy-3-cephem-4-carboxylic acid], which effectiveness against infections ([1]; administered intraperitoneally) is on record?
A: effective against a variety of gram-negative and gram-positive infections

Q: And the “oral protection against infections” value ([1]; given orally)?
A: protects against infections due to Proteus vulgaris

Q: What about the “resistance to enzymatic degradation compared with cephalosporin C” value (cephalosporinases) of the same molecule?
A: more resistant to enzymatic degradation than cephalosporin C

Q: And the IC (25 mm zone) [2]?
A: 88 µg/mL
